Assay results as given in patent US10179355B2, “Bioremediation enhancing agents and methods of use” (JRW BIOREMEDIATION, LLC, priority 2007, dated 2019).

What was measured:
Assay type in all cases: cell-based, Dehalococcoides and Dehalobacter spp.
[1] = test system: dechlorinating bacteria known to convert PCE to ethene; assay: Set C: Nutrient Comparisons, PCE dechlorination microcosms (kinetics, Relative Rate)
Source text: Certain contaminated materials (or sites) may contain indigenous microbial communities that are sufficient for complete bioremediation of contaminants. For such sites, there is no need to add microbes unless the indigenous microbes are genetically deficient in achieving the desired clean-up goals. For those sites that are microbiologically limited, microorganisms may be added to the contaminated materials (or sites). In one embodiment, the inoculum may be a mixed culture of halo-respiring bacteria that have been enriched to reach an optimal cell density. These mixed cultures of halo-respiring bacteria may be typically obtained from sediment samples from rivers, streams or any waterways. More specifically, the inoculum used in the Examples was originated from a Sangamon River sediment sample (Lodge Park, Piatt County, Ill.) See, e.g., Brennan, R. A., Sanford, R. A. and Werth, C. J. (2006). “Biodegradation of Tetrachloroethene by Chitin Fermentation Products in a Continuous Flow Column System.” Journal of Environ. Engr., June 665-673. This culture had grown for several years on PCE, anaerobic basal salts medium, Wolfe's vitamin solution and various electron donors including lactate (1-2 millimolar (mM)), formate (4 mM) and chitin using the Volatile Interface Transfer Apparatus (VITA) reactor system at the University of Illinois. Brennan, R. A., and Sanford, R. A. (2002). “Continuous steady-state method using Tenax for delivering tetrachloroethene to chlororespiring bacteria.” Appl. Environ. Microbiol., 68(3), 1464-1467. […] Using 16S rRNA gene-specific primers, both Dehalococcoides and Dehalobacter spp. were detected. Quantitative real-time PCR has been used to determine that approximately 1.65×10^7 Dehalococcoides gene copies were present per ml of culture.
For purpose of this disclosure, each bottle may be started with a certain amount of PCE. At subsequent times each bottle may be sampled for the degradation daughter products of PCE, namely trichloroethene (TCE), cis-dichloroethene (DCE), vinyl chloride (VC) and ethene, etc. Trans-DCE and 1,1-DCE are also daughter products of PCE, but they may not be detectable under the conditions disclosed here.
The rate of degradation may be determined by calculating the number of pmoles of chloride ions removed from PCE and subsequently from the amounts of the daughter products generated. The calculation may be performed as follows: Chloride (μmoles)=[…]−4×PCE (μmoles)−3×TCE (pmoles)−2×DCE (μmoles)−VC (μmoles)
Next, the dechlorination rate may be determined for each bottle at each time by dividing the Chloride generated by the time (days). The data may be then normalized to the lactate control by taking the ratio of Chloride Rate (pmoles/day) and the Lactate Control Chloride Rate (pmoles/day). This ratio is called Relative Rate and is dimensionless.
As shown in the Examples, a paired t-test has been conducted to calculate the probability that the Relative Rate of one group (i.e. with Nutrient) is greater than the other group (i.e. without Nutrient). The null hypothesis is that the underlying means of the two paired groups are equal. The Probability that one group has higher Relative Rates than the other group is shown in various tables in the Examples.
The following components were used in the system for bioremediating contaminated ground water microcosms in Examples 2-8: • 160 milliliter (ml) stoppered serum bottles • 100 ml of anaerobic culture medium, groundwater containing an excess of bioavailable phosphorus and nitrogen at 0.5 mM Phosphate and 1 mM ammonium degassed with a nitrogen sparge • Nominally 1 gram of limestone • 19.54 micromoles (pmoles) Perchloroethene (PCE) • An excess of various electron donors were utilized • 3 ml of inoculum containing dechlorinating bacteria known to convert PCE to ethene. […]

[2] = test system: dechlorinating bacteria known to convert PCE to ethene; assay: Set C: Efficiency by Volatile Fatty Acid Analysis
Source text: (§1) Sets B, C, D, E, and G further contain figures and tables showing results of the characterization of the Efficiency and the Relative Efficiency of electron donor usage. Efficiency may be defined as the percent of electron donor utilized for dechlorination, and may be calculated by dividing the pmoles of Chloride ion generated by the pmoles of electron donor consumed as measured by either Volatile Fatty Acid (VFA) analysis (Sets B, C, and G) or Chemical Oxygen Demand (COD) analysis (Set D and E). The Relative Efficiency of the electron donor utilization may be defined as the Efficiency of the Electron Donor divided by the Efficiency of the Lactate Control.
(§2) The method used to calculate the consumption of the electron donor measured the propionate, acetate and formate levels to calculate the consumption of electron donor over time. The lactate and propionate fermented very rapidly resulting in acetate and formate as the only measurable VFAs.

[3] = test system: dechlorinating bacteria known to convert PCE to ethene; assay: Set G: Efficiency by VFA Analysis
Source text: as §1, §2
Set G contained microcosms that tested two different Yeast Metabolites (YM3 and YM4) and a Polysaccharide (PS1) for kinetics and efficiency of electron donor utilization using lactate and molasses as the electron donors. PS1 was also tested as an electron donor by itself.
Lactate at 11.2 mM (1,000 mg/L) and nutrient amendment at 1% of the electron donor levels (˜10 mg/L). Triplicate bottles received 2 micro liters of PCE and 2 ml of inoculum. The bottles were sampled 5 times over a 138 day period.

With `CC(O)C(=O)[O-].[Na+]` (stereo not shown) [Lactate Control, sodium lactate] the “Average Relative Rate” value [1] was 1.00, the “Cl^− Rate ± s.d.” value ([1]; 0 days) was 0.00 ± 0.00 µmol and the “Cl^− ± s.d.” value ([1]; 0 days) was 0.00 ± 0.00 µmol. For the same compound, the “DCE ± s.d.” value ([1]; 0 days) was 0.00 ± 0.00 µmol, the “Ethene ± s.d.” value ([1]; 0 days) was 0.00 ± 0.00 µmol and the “PCE ± s.d.” value ([1]; 0 days) was 19.54 ± 0.00 µmol. The “TCE ± s.d.” value ([1]; 0 days) was 0.00 ± 0.00 µmol, the “VC ± s.d.” value ([1]; 0 days) was 0.00 ± 0.00 µmol and the “Cl^− Rate ± s.d.” value ([1]; 21 days) was 2.43 ± 0.13 µmol. For the same compound, the “Cl^− ± s.d.” value ([1]; 21 days) was 51.01 ± 2.69 µmol, the “DCE ± s.d.” value ([1]; 21 days) was 5.05 ± 0.62 µmol and the “Ethene ± s.d.” value ([1]; 21 days) was 0.09 ± 0.02 µmol. For the same compound, the “PCE ± s.d.” value ([1]; 21 days) was 0.66 ± 0.52 µmol, the “TCE ± s.d.” value ([1]; 21 days) was 1.20 ± 1.01 µmol and the “VC ± s.d.” value ([1]; 21 days) was 10.83 ± 1.56 µmol. The “Cl^− Rate ± s.d.” value ([1]; 35 days) was 1.36 ± 0.03 µmol, the “Cl^− ± s.d.” value ([1]; 35 days) was 47.71 ± 1.16 µmol and the “DCE ± s.d.” value ([1]; 35 days) was 2.02 ± 1.88 µmol. The “Ethene ± s.d.” value ([1]; 35 days) was 0.54 ± 0.29 µmol, the “PCE ± s.d.” value ([1]; 35 days) was 0.00 ± 0.00 µmol and the “TCE ± s.d.” value ([1]; 35 days) was 0.00 ± 0.00 µmol. The “VC ± s.d.” value ([1]; 35 days) was 26.41 ± 2.65 µmol, the “Cl^− Rate ± s.d.” value ([1]; 49 days) was 1.03 ± 0.01 µmol and the “Cl^− ± s.d.” value ([1]; 49 days) was 50.42 ± 0.27 µmol. The “DCE ± s.d.” value ([1]; 49 days) was 0.00 ± 0.00 µmol, the “Ethene ± s.d.” value ([1]; 49 days) was 3.79 ± 1.31 µmol and the “PCE ± s.d.” value ([1]; 49 days) was 0.00 ± 0.00 µmol. The “TCE ± s.d.” value ([1]; 49 days) was 0.00 ± 0.00 µmol, the “VC ± s.d.” value ([1]; 49 days) was 27.74 ± 0.27 µmol and the “Relative Rate” value ([1]; bottle 1, 21 days) was 1.06. The “Relative Rate” value ([1]; bottle 1, 35 days) was 1.02, the “Relative Rate” value ([1]; bottle 1, 49 days) was 1.00 and the “Relative Rate” value ([1]; bottle 2, 21 days) was 0.99. The “Relative Rate” value ([1]; bottle 2, 35 days) was 0.97, the “Relative Rate” value ([1]; bottle 2, 49 days) was 0.99 and the “Relative Rate” value ([1]; bottle 3, 21 days) was 0.95. For the same compound, the “Relative Rate” value ([1]; bottle 3, 35 days) was 1.00, the “Relative Rate” value ([1]; bottle 3, 49 days) was 1.01 and the “Estimated % Efficiency” value [2] was 2.55%. The “Relative Efficiency” value ([2]; relative to Lactate Control) was 1.00, the “efficiency of electron donor utilization for dechlorination (in words)” value ([3]; Set G) was “statistically more efficient an electron donor as compared to PS1 and molasses” and the “Estimated % Efficiency” value ([3]; e^- used dechlorination / e^- used donor) was 5.392%. The “Relative Efficiency” value ([3]; relative to Lactate Control = 100%) was 100%.
